Series [1] deals with T1, RXFP1 (Homo sapiens, UniProt Q9HBX9).
T1 construct: expressed in transfected cells
T1 sequence (Q9HBX9 1-757): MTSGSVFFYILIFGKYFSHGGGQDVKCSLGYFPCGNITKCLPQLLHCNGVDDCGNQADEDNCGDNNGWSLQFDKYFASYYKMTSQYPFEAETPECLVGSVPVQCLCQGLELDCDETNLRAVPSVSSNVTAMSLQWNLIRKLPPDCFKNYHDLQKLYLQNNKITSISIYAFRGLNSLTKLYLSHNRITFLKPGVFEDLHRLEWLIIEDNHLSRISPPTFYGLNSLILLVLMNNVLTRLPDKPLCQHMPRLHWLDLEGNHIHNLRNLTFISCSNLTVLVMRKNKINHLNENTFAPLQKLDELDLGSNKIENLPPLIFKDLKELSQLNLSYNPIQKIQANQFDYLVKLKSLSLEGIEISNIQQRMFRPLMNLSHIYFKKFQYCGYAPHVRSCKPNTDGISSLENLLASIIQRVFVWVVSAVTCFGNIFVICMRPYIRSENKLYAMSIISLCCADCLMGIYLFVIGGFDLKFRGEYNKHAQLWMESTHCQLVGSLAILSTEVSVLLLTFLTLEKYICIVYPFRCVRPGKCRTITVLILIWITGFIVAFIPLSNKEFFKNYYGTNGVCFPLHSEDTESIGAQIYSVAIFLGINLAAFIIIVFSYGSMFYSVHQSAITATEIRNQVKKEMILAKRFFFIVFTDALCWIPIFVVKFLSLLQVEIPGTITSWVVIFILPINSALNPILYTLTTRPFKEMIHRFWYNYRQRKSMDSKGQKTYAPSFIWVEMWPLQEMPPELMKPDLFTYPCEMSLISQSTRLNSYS
The series is described as follows: RXFP1 cAMP assay in HEK293-RXFP1 cells (HTRF). The class given is cell-based. The note with it: percentage of the maximal receptor activation induced by high concentrations of forskolin; Tables 1-7; read-out: Max Response. Here is the method: The RXFP1 receptor couples to the Gs protein, and activation of the receptor results in stimulation of cAMP production. […] The TR-FRET between the K-α-cAMP and cAMP-d2 is disrupted by cAMP in the cell lysates, thus allowing TR-FRET detection in a homogenous format that is suitable for HTS. […] The primary screen was carried out in 1536-well format, however, because of a more robust signal to background ratio, all subsequent follow-up experiments were carried out in 384-well format.
For the primary screen, HEK293-RXFP1 cells were seeded at 2,000 cells/well in 3 μL/well media with a MultiDrop Combi dispenser (Thermo Scientific, Logan, Utah), and allowed to attach overnight at 37° C., 5% CO2. […] The cells were allowed to be stimulated with the compounds for 30 minutes at 37° C., 5% CO2, after which, 1 μL/well of each HTRF detection reagent was dispensed with a BioRAPTR FRD dispenser. The detection reagents were diluted before addition as follows: K-α-cAMP antibody at 1:20 and cAMP-d2 at 1:18 in HTRF lysis buffer (supplied by the assay kit). The plates were incubated for 30 minute at room temperature, and then the signal was read on a ViewLux plate reader (PerkinElmer, Waltham, Mass.).
The assay was run according to the following protocol:
Max Response indicates what the maximal amount of functional activity induced by the compound is, as a percentage of the maximal receptor activation induced by high concentrations of forskolin.
(Cyclic AMP is a second messenger, typically raised through Gs and lowered through Gi signalling.)

The target of series [2] is T2, RXFP2 (Homo sapiens, UniProt Q8WXD0).
T2 construct: expressed in transfected cells
T2 sequence (Q8WXD0 whole entry, species assumed): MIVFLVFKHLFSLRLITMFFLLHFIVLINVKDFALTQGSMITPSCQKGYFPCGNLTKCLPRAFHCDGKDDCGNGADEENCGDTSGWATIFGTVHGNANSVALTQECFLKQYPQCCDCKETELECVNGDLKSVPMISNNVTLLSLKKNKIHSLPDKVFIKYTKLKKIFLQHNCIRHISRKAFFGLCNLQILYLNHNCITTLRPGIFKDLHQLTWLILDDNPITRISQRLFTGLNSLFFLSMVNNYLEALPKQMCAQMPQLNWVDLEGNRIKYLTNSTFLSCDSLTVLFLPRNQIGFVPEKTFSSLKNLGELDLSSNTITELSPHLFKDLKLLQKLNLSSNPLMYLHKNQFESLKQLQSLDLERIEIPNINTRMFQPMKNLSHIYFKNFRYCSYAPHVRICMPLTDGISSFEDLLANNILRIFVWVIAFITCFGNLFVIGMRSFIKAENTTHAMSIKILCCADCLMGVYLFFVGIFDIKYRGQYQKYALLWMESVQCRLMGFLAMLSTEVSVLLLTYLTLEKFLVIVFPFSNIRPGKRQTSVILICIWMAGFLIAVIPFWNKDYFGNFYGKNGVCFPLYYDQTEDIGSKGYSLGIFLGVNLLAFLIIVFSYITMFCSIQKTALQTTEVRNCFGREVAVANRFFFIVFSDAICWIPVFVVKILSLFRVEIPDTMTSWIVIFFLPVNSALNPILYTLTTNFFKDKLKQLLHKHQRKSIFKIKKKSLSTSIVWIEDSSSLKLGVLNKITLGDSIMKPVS
Put plainly: RXFP2 cAMP assay in HEK293-RXFP2 cells. The class given is cell-based. To be noted: for Emax: 0.5 h, read-out: RXFP2 AC50 (μM, Max. Resp.): Max. Resp.; for AC50: HEK293-RXFP2 cells, inactive = Maximum response less than 30%, read-out: RXFP2 AC50 (μM, Max. Resp.): AC50. Here is the method:
HEK293 cells stably transfected with RXFP2, the cognate receptor for another relaxin family peptide, insulin-like 3, (HEK293-RXFP2) was used to test compound specificity towards the RXFP1 receptor. For this assay, cells were seeded at 8,000 cells/well in 30 µL/well of media with a MultiDrop Combi dispenser (Thermo Scientific), and allowed to attach overnight at 37° C., 5% CO2. Next, 2 µL/well of 1.6 mM Ro 20-1724 solution in PBS+(DPBS, 1 mM CaCl2, 0.5 mM MgCl2, 0.05% BSA, 0.005% Tween 20) were dispensed using a BioRAPTR FRD dispenser (Beckman Coulter, Brea, Calif.), followed addition of 0.25 μL/well of compound solution in DMSO with CyBi-well dispenser (CyBio, Jena, Germany). The cells were allowed to be stimulated with the compounds for 30 minutes at 37° C., 5% CO2, after which, 8 μL/well of each HTRF detection reagent (diluted according to assay kit directions in HTRF lysis buffer) was dispensed with a BioRAPTR FRD dispenser. The plates were incubated for 30 minute at 37° C., and then the signal was read on a ViewLux plate reader (PerkinElmer, Waltham, Mass.).

A short description of series [3]: ATP Cytotoxicity assay (ATPLite) in HEK293-RXFP1 cells. The class given is cell-based. The note with it: human, inactive = Maximum response less than 30%, read-out: ATP Tox. EC50 (μM, Max. Resp.): EC50. Here is the method: This follow-up assay was conducted to measure the effect of compounds on cell viability by measuring ATP levels (ATPLite™). ATPLite™ is an Adenosine TriPhosphate (ATP) monitoring system based on firefly (Photinus pyralis) luciferase. The level of ATP in a metabolically active cell is a general marker for its viability. ATP levels are often reduced during necrosis or apoptosis. In this assay, the luciferase enzyme catalyzes the conversion of the added substrate D-luciferin to oxyluciferin and light with ATP. Thus, the emitted light is proportional to the ATP concentration. […] After compound incubation, the levels of ATP in each well were measured with the addition of the ATPLite assay reagent.

Series [4] is described as follows: PBS solubility. The class given is physicochemical.
The test system of series [5] is cAMP in THP-1 cells. Put plainly: cyclic AMP assay in THP-1 cells. The class given is cell-based. To be noted: Homo sapiens, THP-1, 0.5 h. Here is the method:
This Example illustrates the cyclic AMP assay in THP-1 cells. THP-1 cells were propagated in RPMI-1640 supplemented with 20% FBS, 0.05 mM β-mercaptoethanol, 100 U/mL penicillin and 100 μg/mL streptomycin at 37° C. in 5% CO2. Before assaying for cAMP response, cells were serum starved in RPMI-1640 supplemented with 0.05 mM (3-mercaptoethanol, 100 U/mL penicillin and 100 μg/mL streptomycin at 37° C. in 5% CO2 for 16 hrs. For 384-well format assays, cells were seeded as 30,000 cells/well in 30 μL/well media with a MultiDrop Combi dispenser (Thermo Scientific, Waltham, Mass.). Subsequently, 2 μL/well of 1.6 mM Ro 20-1724 and 160 uM forskolin in PBS+ (DPBS, 1 mM CaCl2, 0.5 mM MgCl2, 0.05% BSA, 0.005% Tween 20) was dispensed using a BioRAPTR FRD dispenser (Beckman Coulter, Brea, Calif.). Immediately after, 0.25 μL/well of compound solutions in DMSO was dispensed with CyBi-well dispenser (CyBio, Jena, Germany). The cells were allowed to be stimulated with compounds for 30 min at 37° C. in 5% CO2, after which, 8 μL/well of each HTRF cAMP HiRange kit (CisBio, Bedford, Mass.) detection reagent was dispensed with a BioRAPTR FRD dispenser. The detection reagents were diluted as such: K-α-cAMP antibody at 1:20 and cAMP-d2 at 1:18 in HTRF lysis buffer (supplied by the assay kit). The plates were incubated for 30 min at room temperature before the signal was read on an Envision plate reader (PerkinElmer, Waltham, Mass.).

Series [6] concerns the target T3, vasopressin receptor 1b (Homo sapiens, UniProt P47901).
T3 construct: expressed in transfected cells
T3 sequence (P47901 1-424): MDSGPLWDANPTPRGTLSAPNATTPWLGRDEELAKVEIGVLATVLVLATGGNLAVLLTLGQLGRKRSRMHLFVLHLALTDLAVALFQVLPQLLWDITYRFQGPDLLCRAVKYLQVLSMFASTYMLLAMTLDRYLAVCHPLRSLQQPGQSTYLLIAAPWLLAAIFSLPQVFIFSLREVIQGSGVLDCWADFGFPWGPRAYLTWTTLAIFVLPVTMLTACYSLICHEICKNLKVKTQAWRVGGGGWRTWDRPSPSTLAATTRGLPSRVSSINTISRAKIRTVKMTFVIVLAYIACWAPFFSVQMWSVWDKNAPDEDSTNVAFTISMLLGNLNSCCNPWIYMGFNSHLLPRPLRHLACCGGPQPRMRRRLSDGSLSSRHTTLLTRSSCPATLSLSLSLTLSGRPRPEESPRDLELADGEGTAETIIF
Put plainly: V1b cAMP assay in HEK293-V1b cells. The class given is cell-based. To be noted: inactive = Maximum response less than 30%. Here is the method:
HEK293 stably transfected with a nonrelated G protein coupled receptor, vasopressin receptor 1b (HEK293-V1b), were used as an additional counter screen to eliminate compounds that increase cAMP HTRF signal through non-RXFP1 dependent mechanisms. For this assay, cells were seeded at 8,000 cells/well in 30 µL/well media with a MultiDrop Combi dispenser (Thermo Scientific, Logan, Utah), and allowed to attach overnight at 37° C., 5% CO2. Next, 2 μL/well of 1.6 mM Ro 20-1724 solution in PBS+(DPBS, 1 mM CaCl2, 0.5 mM MgCl2, 0.05% BSA, 0.005% Tween 20) was dispensed using a BioRAPTR FRD dispenser (Beckman Coulter, Brea, Calif.), followed by additional of 0.25 μL/well of compound solution in DMSO with CyBi-well dispenser (CyBio, Jena, Germany). The cells were allowed to be stimulated with the compounds for 30 minutes at 37° C., 5% CO2, after which, 8 μL/well of each HTRF detection reagent (diluted according to assay kit directions in HTRF lysis buffer) was dispensed with a BioRAPTR FRD dispenser. The plates were incubated for 30 minute at room temperature, and then the signal was read on a ViewLux plate reader (PerkinElmer, Waltham, Mass.).

Values after ≈ are worked out from the molar mass of the structure shown. A value given as a limit tells only on which side of the number the result lay.

Broadly, the AC50 is the midpoint of the concentration-response curve, whichever way the signal moves. By EC50 is commonly meant the concentration at which the effect is half-maximal. What is called solubility is the concentration that dissolves in the medium under given conditions. Low values mean little dissolved substance, high ones much dissolved substance. On to `COc1ccccc1C(=O)Nc1ccccc1C(=O)Nc1cccc(SC(F)(F)F)c1` [Example 158], for which the Emax in series [1] is 99%. For the same compound, in series [2], the Emax was determined as 54% and the concentration at half-maximal activity (AC50) amounted to 3.34 µM. Moreover, in series [3], the EC50 at 72 h amounted to 3.74 µM. Further, the solubility in series [4] (aqueous buffer) amounted to 2.9 µM (≈ 1.29 µg/mL).

For the compound `CCOc1ccccc1C(=O)Nc1ccccc1C(=O)Nc1cccc(S(=O)(=O)C(F)(F)F)c1` [Example 174, 2-Ethoxy-N-(2-((3-((trifluoromethyl)sulfonyl)phenyl)carbamoyl)phenyl)benzamide], the EC50 in series [5] amounted to 0.362 µM. In series [2], the Emax worked out at 38% and the AC50 was 7.47 µM. The “V1b AC50 (μM, Max. Resp.): AC50” value in series [6] is “inactive^a”. Besides, the “PBS Solubility” value in series [4] was below 1.1 µM.

Take `CCCOc1ccccc1C(=O)Nc1ccccc1C(=O)Nc1cccc(S(=O)(=O)C(F)(F)F)c1` [Example 179]: the Emax in series [1] came out at 98%. The EC50 at 72 h in series [3] stood at 9.4 µM.

The values above are taken from patent US10125112B2, “Modulators of the relaxin receptor 1” (The United States of America, as Represented by the …, priority 2012, dated 2018).
